Measurements as given in US10512631B2, “Chalcone compounds” (Beth Israel Deaconess Medical Center, Inc., priority 2015, dated 2019).

How the values were obtained:
Assay type in all cases: cell-based
PC3 cells [1] = test: Immunofluorescence of P-Histone H3 and α-tubulin in PC3 cells (siRNA STMN1 or control)
Experimental: Immunofluorescence and immunostaining on cell lines and tumor samples were performed as described in Wegiel et al, Cancer research 2013, 73(23), 7009-21. Anti-mouse STMN1, anti-P (Ser10)-Histone H3, and α-tubulin antibody were obtained from Cell Signaling. β-actin antibody was obtained from Sigma-Aldrich. Cells were treated with Compound 6 (1 μM) or DMSO for 48 hours. After immunofluorescence staining, the number of P-Histone H3 was quantified per field of view at 40× magnification using Zeiss Axiovert Microscope.
siRNA against STMN1 and scramble siRNA were obtained from Darmacon (ONTARGET plus siRNA). PC3 cells were transiently transfected with siRNA against STMN1 or scramble siRNA using Lipofectamine 2000 (Invitrogen) as previously described in Wegiel et al., J. Biol. Chem. 2009, 7; 284(32):21369-78. Twenty four hours post-transfection, cells were split to 96 well plates and treated with test compounds for 72 hours. STMN1 levels were measured by immunoblotting to confirm successful knockdown.

DNA synthesis = test: BrDU proliferation; settings: data not shown
PC3 cells [2] = test: RT2 profiler PCR array Human Cancer Pathway; settings: after treatment vs DMSO
Experimental: RT^2 profiler PCR array Human Cancer Pathway was purchased from SA Biosciences. RNA from PC3 cells treated with DMSO or Compound 6 were isolated and prepared for RT-PCR following manufacturer' protocol. Analysis was performed online using the software provided by SA Biosciences.

PC3 cells [3] = test: Annexin V staining; settings: 24 hours
Experimental: PC3 cells were seeded at 1×10^5 concentration in 6 well plates 24 hours before experiment. Cells were treated with Compound 6 for 24 hours. Cells were harvested and apoptosis rate was measured using Annexin V-FITC staining according to manufacturer's protocol (BD Biosciences, San Jose, Calif.).

[4] = target: T1, ASK1 kinase and STMN1 interaction (Homo sapiens, UniProt Q99683); test: Immunoprecipitation of STMN1 / immunoblotting of P-ASK1; settings: A549 cells, 1 μM, 30 minutes
T1 construct: immunoblotting with antibody against P-ASK1 (Ser83) in A549 cells treated with 1 μM Compound 6 or DMSO; endogenous in cells; host or cells: A549 cells
T1 sequence (Q99683 1-1374): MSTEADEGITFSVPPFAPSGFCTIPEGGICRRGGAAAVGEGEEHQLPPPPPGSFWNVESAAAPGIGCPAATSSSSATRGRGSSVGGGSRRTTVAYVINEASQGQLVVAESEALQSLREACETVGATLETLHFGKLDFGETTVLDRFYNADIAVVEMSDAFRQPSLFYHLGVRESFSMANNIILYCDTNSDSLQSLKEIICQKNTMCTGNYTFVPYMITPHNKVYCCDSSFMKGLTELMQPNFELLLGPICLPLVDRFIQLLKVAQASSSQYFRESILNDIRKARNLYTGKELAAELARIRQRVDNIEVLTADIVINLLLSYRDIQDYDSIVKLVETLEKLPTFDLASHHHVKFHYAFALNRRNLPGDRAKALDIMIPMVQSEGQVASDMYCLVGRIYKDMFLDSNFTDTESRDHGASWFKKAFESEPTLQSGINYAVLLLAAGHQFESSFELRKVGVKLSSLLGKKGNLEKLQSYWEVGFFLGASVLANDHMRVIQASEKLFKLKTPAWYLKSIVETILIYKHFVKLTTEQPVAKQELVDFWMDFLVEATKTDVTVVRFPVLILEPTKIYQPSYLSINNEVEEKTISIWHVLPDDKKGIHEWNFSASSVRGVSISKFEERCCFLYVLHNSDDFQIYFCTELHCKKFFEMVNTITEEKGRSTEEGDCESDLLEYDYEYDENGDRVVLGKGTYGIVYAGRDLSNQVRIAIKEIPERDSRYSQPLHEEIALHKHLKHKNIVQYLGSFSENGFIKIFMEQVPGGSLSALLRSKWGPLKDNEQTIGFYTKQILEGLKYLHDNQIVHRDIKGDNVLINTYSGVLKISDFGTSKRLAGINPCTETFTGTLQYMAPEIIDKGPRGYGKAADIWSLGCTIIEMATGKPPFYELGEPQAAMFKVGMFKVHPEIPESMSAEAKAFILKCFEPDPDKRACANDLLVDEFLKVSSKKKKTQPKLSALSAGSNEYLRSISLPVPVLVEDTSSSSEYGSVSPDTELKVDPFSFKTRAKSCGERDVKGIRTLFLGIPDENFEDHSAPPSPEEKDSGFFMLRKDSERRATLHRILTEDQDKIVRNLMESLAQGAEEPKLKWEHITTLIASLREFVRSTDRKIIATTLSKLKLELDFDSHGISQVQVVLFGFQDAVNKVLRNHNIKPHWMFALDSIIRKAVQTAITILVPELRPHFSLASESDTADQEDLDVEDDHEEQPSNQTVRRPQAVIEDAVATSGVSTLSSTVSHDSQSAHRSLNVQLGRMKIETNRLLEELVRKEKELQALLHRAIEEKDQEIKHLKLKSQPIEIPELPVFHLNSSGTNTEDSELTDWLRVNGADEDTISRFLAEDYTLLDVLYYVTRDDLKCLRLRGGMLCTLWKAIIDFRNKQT
Experimental: Snap-frozen tissue samples were homogenized in ice-cold tissue lysis buffer (250 mM NaCl, 5 mM EDTA, 1% Triton X-100, 10 mM Tris-HCl; pH 7.5) containing the protease inhibitor cocktail Complete Mini (Roche). For co-immunoprecipitation, 200 μg protein lysates in RIPA buffer and the protease inhibitor cocktail were mixed with appropriate antibodies and 30 μl Protein A/G Plus-agarose beads (Santa Cruz Biotechnology) and then rotated for 1 hour at room temperature. The proteins were washed with RIPA buffer and eluted (95° C., 5 min in SDS loading buffer). Immunoblotting was performed as previously described in Chin et al., Proc. Natl. Acad. Sci. USA 2007, 104(12), 5109-14. Antibodies: P (Ser967)-ASK1 (Cell Signaling), Ask1 (Cell Signaling), P-STMN1 (Ser16) (Cell Signaling), STMN1 (Cell Signaling), 13-Actin (Sigma) were used at 1:1000 dilution.

Cn1ccc2cc(/C=C3\CCc4ccc(F)cc4C3=O)ccc21 [Compound 6, (2E)-7-fluoro-2-[(1-methyl-1H-indol-5-yl)methylidene]-1,2,3,4-tetrahydronaphthalen-1-one]
number of cells undergoing mitosis (P-Histone H3) and normal mitotic spindles (α-tubulin) (PC3 cells [1]; 1 μM): blocked number of cells undergoing mitosis | microtubule destabilization, aberrant mitotic spindle and P-Histone H3 positive cells in the absence of STMN1 (PC3 cells [1]; siRNA against STMN1, 1 μM): in part reversed | DNA synthesis (BrDU proliferation) (DNA synthesis): did not inhibit DNA synthesis | adrenomedullin mRNA elevation (PC3 cells [2]): more than 4 fold | stathmin (STMN1) mRNA elevation (PC3 cells [2]): more than 4 fold | Annexin V-positive cells (PC3 cells [3]): increased number of Annexin V-positive cells | ASK1 kinase and STMN1 interaction [4]: significantly blocked
